Source: ChEMBL document CHEMBL5518233, “Design and Synthesis of 3-(2H-Chromen-3-yl)-5-aryl-1,2,4-oxadiazole Derivatives as Novel Toll-like Receptor 2/1 Agonists That Inhibit Lung Cancer In Vitro and In Vivo” (J Med Chem, 2024)
Where a SMILES comes first, the peptide text is derived from it. The star is where a group is joined. X1 = CCCCCCCCCCCCCCCC(=O)OCC(C*)OC(=O)CCCCCCCCCCCCCCC; Palmitoyl = CCCCCCCCCCCCCCCC(=O)*

Key:
Toll-like receptor 1/2 [1] = target: T1, Toll-like receptor 1/2 (Homo sapiens, UniProt O60603+Q15399); experiment: Agonist activity at human TLR2/TLR1 transfected in HEK293T cells incubated for 24 hrs by dual luciferase reporter gene assay; type: cell-based
T1 sequence (O60603 whole entry): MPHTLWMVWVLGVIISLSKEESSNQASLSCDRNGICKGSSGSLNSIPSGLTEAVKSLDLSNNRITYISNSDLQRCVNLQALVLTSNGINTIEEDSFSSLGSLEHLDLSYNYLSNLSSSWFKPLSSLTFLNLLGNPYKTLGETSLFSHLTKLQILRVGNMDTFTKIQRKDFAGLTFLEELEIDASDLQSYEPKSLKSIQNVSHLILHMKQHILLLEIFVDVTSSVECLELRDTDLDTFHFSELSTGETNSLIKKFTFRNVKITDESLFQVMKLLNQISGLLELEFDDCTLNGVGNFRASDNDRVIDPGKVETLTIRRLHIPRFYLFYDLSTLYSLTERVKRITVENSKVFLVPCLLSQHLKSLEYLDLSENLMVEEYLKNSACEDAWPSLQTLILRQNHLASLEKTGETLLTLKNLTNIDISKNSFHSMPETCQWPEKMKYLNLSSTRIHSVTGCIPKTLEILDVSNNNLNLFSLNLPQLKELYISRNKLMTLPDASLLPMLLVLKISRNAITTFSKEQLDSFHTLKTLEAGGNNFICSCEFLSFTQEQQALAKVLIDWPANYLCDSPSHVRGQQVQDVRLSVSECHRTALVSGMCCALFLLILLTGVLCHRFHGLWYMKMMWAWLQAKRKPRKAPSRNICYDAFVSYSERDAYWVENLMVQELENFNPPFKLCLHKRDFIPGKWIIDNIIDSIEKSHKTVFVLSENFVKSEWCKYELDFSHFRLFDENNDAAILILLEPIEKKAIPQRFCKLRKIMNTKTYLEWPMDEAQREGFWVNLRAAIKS
T1 sequence (Q15399 whole entry): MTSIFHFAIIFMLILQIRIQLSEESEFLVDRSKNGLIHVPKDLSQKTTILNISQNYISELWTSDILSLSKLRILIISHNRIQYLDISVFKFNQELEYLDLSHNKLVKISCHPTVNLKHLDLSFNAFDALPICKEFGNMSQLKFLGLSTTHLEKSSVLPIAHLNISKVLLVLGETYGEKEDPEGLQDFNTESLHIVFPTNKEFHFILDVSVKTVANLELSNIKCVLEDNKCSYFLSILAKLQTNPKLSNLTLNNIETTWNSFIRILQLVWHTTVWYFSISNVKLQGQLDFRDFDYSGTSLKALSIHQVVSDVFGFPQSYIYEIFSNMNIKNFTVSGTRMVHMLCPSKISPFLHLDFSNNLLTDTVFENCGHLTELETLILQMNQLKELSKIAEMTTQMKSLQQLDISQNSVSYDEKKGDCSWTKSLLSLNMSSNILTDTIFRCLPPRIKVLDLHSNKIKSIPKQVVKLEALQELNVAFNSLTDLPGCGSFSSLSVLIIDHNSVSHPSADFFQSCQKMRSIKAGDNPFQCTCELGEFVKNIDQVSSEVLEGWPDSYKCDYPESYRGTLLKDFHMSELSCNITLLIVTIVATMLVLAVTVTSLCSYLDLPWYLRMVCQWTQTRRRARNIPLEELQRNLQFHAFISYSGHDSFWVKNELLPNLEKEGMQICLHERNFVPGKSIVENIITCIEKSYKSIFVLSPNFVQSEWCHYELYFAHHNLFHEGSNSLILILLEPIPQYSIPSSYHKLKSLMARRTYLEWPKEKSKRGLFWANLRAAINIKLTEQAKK

[2] = Antitumor activity against mouse Lewis lung carcinoma cell line xenografted with C57BL/6J mouse assessed as tumor growth inhibition at 5 mg/kg,ip administrated every 2 days for 21 days relative to control; type: functional; conditions: 504 h, time 21 day, read-out: TGI
Toll-like receptor 1/2 [3] = target: T1, Toll-like receptor 1/2; experiment: Agonist activity at human TLR2/TLR1 transfected in HEK293T cells assessed as relative light unit at 100 ng/ml incubated for 24 hrs by dual luciferase reporter gene assay; type: cell-based; conditions: filed as agonist
A549 = experiment: Antitumor activity against human A549 cells xenografted with BALB/c mouse assessed as tumor growth inhibition at 5 mg/kg,ip administrated every 2 days for 30 days relative to control; type: functional; conditions: A549, 720 h, time 30 day, read-out: TGI

Row | Compound | EC50 (Toll-like receptor 1/2 [1]) [nM] | inhibition in vivo at 5 mg/kg [2] [%] | Activity (Toll-like receptor 1/2 [3]) [RLU] | inhibition in vivo at 5 mg/kg (A549) [%]
1 | CNc1ccc([N+](=O)[O-])cc1-n1cnc(-c2ccc(C(F)(F)F)cc2O)c1 | 35 | 63.5 | – | –
2 | O=[N+]([O-])c1ccc(F)c(-c2nc(C3=Cc4ccccc4OC3)no2)c1 | 30.1 | – | – | –
3 | CCCCCCCCCCCCCCCC(=O)N[C@@H](CSCC(COC(=O)CCCCCCCCCCCCCCC)OC(=O)CCCCCCCCCCCCCCC)C(=O)N[C@@H](CO)C(=O)N[C@@H](CCCCN)C(=O)N[C@@H](CCCCN)C(=O)N[C@@H](CCCCN)C(=O)N[C@@H](CCCCN)C(=O)O (stereo partly specified) (Palmitoyl-C(X1)SKKKK-OH) | – | – | 7.95 | –
4 | O=c1[nH]cc(F)c(=O)[nH]1 [FLUOROURACIL] | – | 79.4 | – | 77.5
